Values quoted from earlier work as cited in patent US20100016582A1 (Wyeth, priority 2008, published 2010).

Experiments:
[1] = drug formulations; acetic acid
[2] = contact with a solvent or solvent mixture (e.g., ethyl acetate and ethanol)
[3] = test system: uterine response; conditions: preclinical models of uterine stimulation
[4] = test system: ovariectomized rat model of osteopenia
[5] = test system: MCF-7 cell line (human breast cancer cell line)

Structure (SMILES) | bioavailability [1] | conversion of Form A to Form B [2] | stimulation of uterine response [3] | prevention of bone loss [4] | reduction of cholesterol [4] | estrogen antagonist behaviour [5]
Cc1c(-c2ccc(O)cc2)n(Cc2ccc(OCCN3CCCCCC3)cc2)c2ccc(O)cc12 [Form A, 1-[4-(2-azepan-1-yl-ethoxy)-benzyl]-2-(4-hydroxy-phenyl)-3-methyl-1H-indol-5-ol acetic acid] | better bioavailability in some drug formulations | can easily convert to Form B | – | – | – | –
Cc1c(-c2ccc(O)cc2)n(Cc2ccc(OCCN3CCCCCC3)cc2)c2ccc(O)cc12 [bazedoxifene acetate, 1-[4-(2-azepan-1-yl-ethoxy)-benzyl]-2-(4-hydroxy-phenyl)-3-methyl-1H-indol-5-ol acetic acid] | – | – | little or no stimulation of uterine response | estrogen agonist-like effect in preventing bone loss | reducing cholesterol | behaves as an estrogen antagonist
